Assay results: paper PMC12040169 (PLOS Biology, 2025)

Assay: in vitro
Conditions: human, hela cells, % viability

Cc1cc2nnc(SC(C)c3nc(-c4ccccc4)no3)n2c(C)n1 (stereo not drawn) [CBK298306]
viability at 28.5 h, 10 µM: 91.7%

Cc1cc(C)cc(C(=O)N2CCCC(C(=O)N3CCN(c4nccs4)CC3)C2)c1 (stereo not drawn) [CBK298307]
viability at 28.5 h, 10 µM: 95.1%

Cc1nnc(C(C)Sc2nnc(N3CCC(C)CC3)n2Cc2ccco2)o1 (stereo not drawn) [CBK298311]
viability at 28.5 h, 10 µM: 96.6%

O=C(c1nc(=O)[nH][nH]1)N1CCN(Cc2ccc(C(F)(F)F)cc2)CC1 [CBK298312]
viability at 28.5 h, 10 µM: 95.5%

CC(=O)NC(CC(=O)NCc1cccnc1-n1cncn1)c1ccc(Cl)cc1 (stereo not drawn) [CBK298314]
viability at 28.5 h, 10 µM: 101%

Cc1ccn2c(=O)c(C(=O)NCc3cccnc3N3CCOCC3)cnc2c1 [CBK298316]
viability at 28.5 h, 10 µM: 86.1%

CC(=O)Nc1cccc(-n2nnnc2SCCCc2nc3ccccc3o2)c1 [CBK298317]
viability at 28.5 h, 10 µM: 85.5%

COc1ccccc1CC(=O)NCCC(=O)N1CCN(c2ccc(F)cc2)CC1 [CBK298318]
viability at 28.5 h, 10 µM: 87.6%

O=C(NCC1Cc2ccccc2O1)c1ccc(Br)cc1Cl (stereo not drawn) [CBK298323]
viability at 28.5 h, 10 µM: 86.9%

CC(SCc1ccccc1)C(=O)NCc1ccnc(OCC(F)(F)F)c1 (stereo not drawn) [CBK298325]
viability at 28.5 h, 10 µM: 111%

CSc1ccc(CN(C)c2cncc(-n3cccn3)n2)cc1 [CBK298326]
viability at 28.5 h, 10 µM: 91.2%

Cc1ccc(C(=O)NCCC(=O)Nc2ccccn2)cc1NC(=O)c1ccco1 [CBK298328]
viability at 28.5 h, 10 µM: 92.2%

Cc1ccccc1-n1c(C)cc(C(=O)CSc2nncn2C)c1C [CBK298330]
viability at 28.5 h, 10 µM: 91.9%

COc1cc(CNC(=O)C(C)SCc2ccccc2)ccn1 (stereo not drawn) [CBK298331]
viability at 28.5 h, 10 µM: 90.8%

Nc1nccnc1C(=O)N1CCN(C(=O)Cc2c[nH]c3ccccc23)CC1 [CBK298339]
viability at 28.5 h, 10 µM: 88.1%

COc1ccc(S(=O)(=O)Nc2ccc(C(=O)O)c(O)c2)cc1[N+](=O)[O-] [CBK299771]
viability at 28.5 h, 10 µM: 95.7%

O=C(O)c1ccc(NS(=O)(=O)c2ccc(Br)c3ccccc23)cc1O [CBK299772]
viability at 28.5 h, 10 µM: 86.5%

O=C(O)CSc1nc2ccc(NC(=O)COc3ccc(Cl)cc3)cc2s1 [CBK299773]
viability at 28.5 h, 10 µM: 84.6%

O=C(Nc1ccccc1C(=O)O)c1cccc(NC(=O)c2ccco2)c1 [CBK299774]
viability at 28.5 h, 10 µM: 88.1%

Cc1cccnc1NS(=O)(=O)c1cccs1 [CBK299775]
viability at 28.5 h, 10 µM: 80.6%

CC(C)c1ccc(/C=C2\CCCc3c2nc2ccccc2c3C(=O)O)cc1 [CBK299777]
viability at 28.5 h, 10 µM: 91.2%

CC(=O)c1c(C)oc2c1cc(NS(=O)(=O)c1ccc(C(=O)O)cc1)c1ccccc12 [CBK299780]
viability at 28.5 h, 10 µM: 92%

CCOc1cc(C(=O)O)ccc1OCCOc1cccc(C)c1 [CBK299781]
viability at 28.5 h, 10 µM: 91.6%

COc1cc(C)c(S(=O)(=O)Nc2ccc(CC(=O)O)cc2)cc1C [CBK299782]
viability at 28.5 h, 10 µM: 101%

O=C(O)C1CC=CCC1C(=O)Nc1ccc(CN2CCOCC2)cc1 (stereo not drawn) [CBK299786]
viability at 28.5 h, 10 µM: 107%

CC(C)(CC(=O)O)CC(=O)Nc1ccc(N2CCCC2=O)cc1 [CBK299787]
viability at 28.5 h, 10 µM: 109%

O=C(O)CCc1ccc(NS(=O)(=O)c2ccc(N3CCCC3=O)cc2)cc1 [CBK299788]
viability at 28.5 h, 10 µM: 116%

CC(=O)c1c(C)oc2ccc(N(C(C)=O)S(=O)(=O)c3ccc(C(=O)O)cc3)cc12 [CBK299790]
viability at 28.5 h, 10 µM: 106%

O=C(O)CSc1nc2ccc(NC(=O)c3ccccc3Cl)cc2s1 [CBK299791]
viability at 28.5 h, 10 µM: 110%

CCCCCOc1ccc(NS(=O)(=O)c2cccc(C(=O)O)c2)cc1 [CBK299795]
viability at 28.5 h, 10 µM: 103%

O=C(O)c1ccc(OCCNS(=O)(=O)c2ccc3oc4ccccc4c3c2)cc1 [CBK299797]
viability at 28.5 h, 10 µM: 90.8%

CN1C(=O)c2cccc3c(S(=O)(=O)Nc4ccc(C(=O)O)c(O)c4)ccc1c23 [CBK299799]
viability at 28.5 h, 10 µM: 109%

CC(C)COc1ccc(-c2nonc2NC(=O)c2ccco2)cc1 [CBK299802]
viability at 28.5 h, 10 µM: 99.1%

O=C(O)CCCC(=O)NC(Cc1ccccc1)C(=O)Nc1ccc([N+](=O)[O-])cc1 (stereo not drawn) [CBK299806]
viability at 28.5 h, 10 µM: 84.5%

O=C(O)c1ccc(OCCNS(=O)(=O)c2ccc3ccccc3c2)cc1 [CBK299807]
viability at 28.5 h, 10 µM: 83.5%

COc1cccc(C(=O)Nc2nc3ccccc3n2Cc2ccccc2)c1OC [CBK299811]
viability at 28.5 h, 10 µM: 91.4%

O=C(O)c1ccccc1C(=O)Nc1cccc(-c2noc(-c3cccc(F)c3)n2)c1 [CBK299813]
viability at 28.5 h, 10 µM: 92%

CC(=O)Nc1ccc(NC(=O)CC2(CC(=O)O)CCCCC2)cc1 [CBK299816]
viability at 28.5 h, 10 µM: 102%

O=C(O)c1c(-c2ccccc2)oc2ccc(NS(=O)(=O)c3ccc(F)cc3)cc12 [CBK299817]
viability at 28.5 h, 10 µM: 89.9%

CC(C)c1ccc(S(=O)(=O)Nc2ccc(C(=O)O)c(O)c2)cc1 [CBK299819]
viability at 28.5 h, 10 µM: 104%

Cn1c(=O)n(C)c2cc(S(=O)(=O)NCCOc3ccc(C(=O)O)cc3)ccc21 [CBK299824]
viability at 28.5 h, 10 µM: 94.9%

COc1cc(S(=O)(=O)NCCOc2ccc(C(=O)O)cc2)c(OC)cc1Cl [CBK299825]
viability at 28.5 h, 10 µM: 92.1%

CCc1ccc(S(=O)(=O)Nc2ccc(O)c(C(=O)O)c2)cc1 [CBK299827]
viability at 28.5 h, 10 µM: 90.7%

O=C(O)CCC(=O)Nc1nc(-c2ccc(Cl)cc2)cs1 [CBK299829]
viability at 28.5 h, 10 µM: 86.8%

COc1ccc(CNC(=O)C2CCCN(S(C)(=O)=O)C2)cc1OC (stereo not drawn) [CBK299830]
viability at 28.5 h, 10 µM: 90.2%

CCOc1ccc(-c2nc(-c3cccc(NC(=O)c4ccccc4C(=O)O)c3)no2)cc1 [CBK299832]
viability at 28.5 h, 10 µM: 85.2%

O=C(CSCc1ccc(C(=O)O)cc1)Nc1ccc2ccccc2c1 [CBK299833]
viability at 28.5 h, 10 µM: 76.1%

CN(CCCC(=O)O)c1nc(-c2ccc(Br)cc2)cs1 [CBK299834]
viability at 28.5 h, 10 µM: 88.6%

Cc1noc(C)c1Cc1ccc(C(=O)Nc2nc3ccccc3n2C)o1 [CBK299839]
viability at 28.5 h, 10 µM: 85.6%

O=C(O)CCCC(=O)Nc1ccccc1C(=O)NCc1ccco1 [CBK299840]
viability at 28.5 h, 10 µM: 85.8%

CCn1c2ccccc2c2cc(NC(=O)CC(C)CC(=O)O)ccc21 (stereo not drawn) [CBK300031]
viability at 28.5 h, 10 µM: 103%

Cc1ccc2nc(-c3ccc(-c4ccc(C(C)C)cc4)o3)cc(C(=O)O)c2c1 [CBK300083]
viability at 28.5 h, 10 µM: 96.7%

O=C(O)CCC(=O)Nc1cccc(NC(=O)c2ccc(Br)cc2)c1 [CBK300180]
viability at 28.5 h, 10 µM: 84.6%

Cn1c(SCC(=O)Nc2cccc(C(=O)O)c2)nnc1-c1ccccc1 [CBK300479]
viability at 28.5 h, 10 µM: 96.1%

O=C(O)CCNC(=O)/C(=C/c1ccc(Cl)cc1)NC(=O)c1ccccc1 [CBK300484]
viability at 28.5 h, 10 µM: 86.5%

O=C(Nc1cc(Oc2cccnc2)cc([N+](=O)[O-])c1)c1sc2ccccc2c1Cl [CBK300485]
viability at 28.5 h, 10 µM: 106%

O=C(Nc1nnc(COc2ccccc2)s1)c1cccc2ccccc12 [CBK300487]
viability at 28.5 h, 10 µM: 97.6%

Cn1c(=O)oc2ccc(C(=O)CSc3nnnn3-c3ccccc3)cc21 [CBK300488]
viability at 28.5 h, 10 µM: 90.1%

CCCCOc1ccc(C(=O)N/C(=C/c2ccc(OC)cc2)C(=O)O)cc1 [CBK300490]
viability at 28.5 h, 10 µM: 87.5%

O=C(O)CCCC(=O)Nc1ccc(Cc2ccncc2)cc1 [CBK300493]
viability at 28.5 h, 10 µM: 93.1%

CCCc1ccc(-c2cc(C(=O)NCc3cccnc3)c3ccccc3n2)cc1 [CBK300494]
viability at 28.5 h, 10 µM: 92.6%

O=C(CCSc1nnnn1-c1ccc(C(=O)O)cc1)Nc1ccc(F)cc1 [CBK300497]
viability at 28.5 h, 10 µM: 88.4%

O=C(CC1SC(N2CCOCC2)=NC1=O)Nc1cccc(C(=O)O)c1 (stereo not drawn) [CBK300498]
viability at 28.5 h, 10 µM: 101%

Cc1cccnc1NC(=O)c1cc(O)nc2ccccc12 [CBK300499]
viability at 28.5 h, 10 µM: 91.6%

CCCCNC(=O)c1c(N)n(-c2ccc(C(=O)O)cc2)c2nc3ccccc3nc12 [CBK300500]
viability at 28.5 h, 10 µM: 82.7%

CC(C)c1ccc(Cc2cnc(NC(=O)c3cc(Br)cs3)s2)cc1 [CBK300503]
viability at 28.5 h, 10 µM: 88.7%

Cn1c(COc2cccc3cccnc23)nnc1SCC(=O)O [CBK300505]
viability at 28.5 h, 10 µM: 89.4%

COc1ccc(-c2nnc(SCCC(=O)O)[nH]2)cc1 [CBK300506]
viability at 28.5 h, 10 µM: 93.4%

CS(=O)(=O)c1ccc(NC(=S)N2CCN(c3ccc(F)cc3)CC2)cc1 [CBK300507]
viability at 28.5 h, 10 µM: 95.3%

O=C(O)CSc1nnc(-c2ccc(S(=O)(=O)N3CCCCCC3)cc2)o1 [CBK300508]
viability at 28.5 h, 10 µM: 81.9%

COc1ccc(C(=O)c2c(N)c(C(=O)Nc3ccccc3)c3ccccn23)cc1 [CBK300509]
viability at 28.5 h, 10 µM: 92.6%

COc1ccc(CCNC(=O)NS(=O)(=O)c2ccc(C)cc2)cc1OC [CBK300510]
viability at 28.5 h, 10 µM: 88%

COc1cccc(N2CCN(c3cc4n[nH]c(=O)n4cn3)CC2)c1 [CBK300511]
viability at 28.5 h, 10 µM: 87.1%

Cc1cc(C)c2c(n1)sc1c(N3CCC(C(=O)O)CC3)ncnc12 [CBK300512]
viability at 28.5 h, 10 µM: 83.1%

Cc1ccc(-c2ccc(N3CCCC(C(=O)O)C3)nn2)cc1C (stereo not drawn) [CBK300513]
viability at 28.5 h, 10 µM: 95.8%

CCN(CC(=O)NCc1cccnc1)S(=O)(=O)c1ccc2ccccc2c1 [CBK300514]
viability at 28.5 h, 10 µM: 108%

Cc1cc(C)c2c(N)c(C(=O)Nc3ccc(C(=O)O)cc3)sc2n1 [CBK300515]
viability at 28.5 h, 10 µM: 100%

Cc1ccc(S(=O)(=O)Nc2nc3ccccc3nc2Nc2ccc(C(=O)O)cc2)cc1C [CBK300516]
viability at 28.5 h, 10 µM: 91.5%

O=C(Nc1ccccc1C(F)(F)F)c1ccc(-n2cnnn2)cc1 [CBK300521]
viability at 28.5 h, 10 µM: 86.8%

O=C(Nc1ncc(Cc2ccc(F)cc2)s1)c1ccc(-c2ccc(F)cc2)o1 [CBK300522]
viability at 28.5 h, 10 µM: 99.5%

Cc1cccc(C)c1NC(=O)Nc1ccc(F)cc1F [CBK300526]
viability at 28.5 h, 10 µM: 90.2%

CSc1cccc(NC(=O)Nc2ccc3c(c2)OCCO3)c1 [CBK300527]
viability at 28.5 h, 10 µM: 104%

CCCCc1ccc(-c2ccc(-c3cc(C(=O)O)c4cc(C)ccc4n3)o2)cc1 [CBK300528]
viability at 28.5 h, 10 µM: 94%

O=C(c1ccccc1)c1ccc2n1CCC2C(=O)Nc1ccccc1F (stereo not drawn) [CBK300530]
viability at 28.5 h, 10 µM: 90.5%

CC1CCc2c(C(=O)Nc3ncc(Cc4ccccc4)s3)csc2C1 (stereo not drawn) [CBK300531]
viability at 28.5 h, 10 µM: 94.6%

COc1cccc(Cn2c(=O)c3sccc3n(CC(=O)NCc3ccc(C)cc3)c2=O)c1 [CBK300533]
viability at 28.5 h, 10 µM: 80.8%

COc1ccc(CNC(=O)Cn2nc3c(SCc4ccc(Cl)cc4)nccn3c2=O)cc1 [CBK300541]
viability at 28.5 h, 10 µM: 90.5%
